Test system: T1, soluble HRP (horseradish peroxidase)
T1 construct: gene PRXC1A; soluble (free) enzyme, gift of Dr. Elba Bon (UFRJ)
Assay: spectrophotometric, purpurogallin formation at […] nm, nonlinear hyperbolic fit
Type: biochemical, Armoracia rusticana
Details: soluble enzyme; co-substrate H2O2 (0.25 mL of 5 mM); pyrogallol 4.0-48.7 mM; 28 °C; pH of kinetics not clearly stated (4.5 or 7.0)

## Oc1cccc(O)c1O [pyrogallol]
  Km: 5.47 ± 0.71 mM

From PMC3349093, “Immobilized Horseradish Peroxidase on Discs of Polyvinyl Alcohol-Glutaraldehyde Coated with Polyaniline” (The Scientific World Journal, 2012)
